Measured values as given in PubChem BioAssay AID1963978 (Molecular Pharmacology Branch, DTP, NCI, 2024).

Test system: 616215-338-R-J1-PDC spheroids with HUVEC/MSC, viability
Assay: Anticancer human tumor 616215-338-R-J1-PDC patient-derived colon adenocarcinoma cell line growth inhibition [PI3K]
Conditions: for IC50: curve of first compound; for viability, T/C: stronger effect = lower value
Summary of the method: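 Combination activity was assessed by viability in multicellular tumor spheroids carrying HUVEC and MSC components. Agents were tested with PI3K inhibitors from a Cmax-based top dose (or 10 microM) downward in half-log increments.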

[1] = second compound 0.0316 µM, first compound 0.0316 µM
[2] = second compound 0.0316 µM, first compound 0.1 µM
[3] = second compound 0.0316 µM, first compound 0.316 µM
[4] = second compound 0.0316 µM, first compound 1 µM
[5] = second compound 0.0316 µM, first compound 3.16 µM
[6] = second compound 0.0316 µM, first compound 10 µM
[7] = second compound 0.1 µM, first compound 0.0316 µM
[8] = second compound 0.1 µM, first compound 0.1 µM
[9] = second compound 0.1 µM, first compound 0.316 µM
[10] = second compound 0.1 µM, first compound 1 µM
[11] = second compound 0.1 µM, first compound 3.16 µM
[12] = second compound 0.1 µM, first compound 10 µM
[13] = second compound 0.316 µM, first compound 0.0316 µM
[14] = second compound 0.316 µM, first compound 0.1 µM
[15] = second compound 0.316 µM, first compound 0.316 µM
[16] = second compound 0.316 µM, first compound 1 µM
[17] = second compound 0.316 µM, first compound 3.16 µM
[18] = second compound 0.316 µM, first compound 10 µM
[19] = second compound 1 µM, first compound 0.0316 µM
[20] = second compound 1 µM, first compound 0.1 µM
[21] = second compound 1 µM, first compound 0.316 µM
[22] = second compound 1 µM, first compound 1 µM
[23] = second compound 1 µM, first compound 3.16 µM
[24] = second compound 1 µM, first compound 10 µM
[25] = second compound 3.16 µM, first compound 0.0316 µM
[26] = second compound 3.16 µM, first compound 0.1 µM
[27] = second compound 3.16 µM, first compound 0.316 µM
[28] = second compound 3.16 µM, first compound 1 µM
[29] = second compound 3.16 µM, first compound 3.16 µM
[30] = second compound 3.16 µM, first compound 10 µM
[31] = second compound 10 µM, first compound 0.0316 µM
[32] = second compound 10 µM, first compound 0.1 µM
[33] = second compound 10 µM, first compound 0.316 µM
[34] = second compound 10 µM, first compound 1 µM
[35] = second compound 10 µM, first compound 3.16 µM
[36] = second compound 10 µM, first compound 10 µM
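Note: spheroids exposed to agents for seven days before the viability read.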

CC(C)NCC(C(=O)N1CCN(c2ncnc3c2C(C)CC3O)CC1)c1ccc(Cl)cc1 (stereo not drawn) + CC(Nc1ncnc2nc[nH]c12)c1cc2cccc(Cl)c2c(=O)n1-c1ccccc1
IC50 (second compound 0.0316 µM): 4.16 µM
IC50 (second compound 0.1 µM): 3.77 µM
IC50 (second compound 0.316 µM): 4.74 µM
IC50 (second compound 1 µM): 5.08 µM
IC50 (second compound 3.16 µM): 4.13 µM
IC50 (second compound 10 µM): 3.54 µM
viability, T/C [1]: 91.7%
viability, T/C [2]: 93.4%
viability, T/C [3]: 94.4%
viability, T/C [4]: 87.2%
viability, T/C [5]: 57.9%
viability, T/C [6]: 24.9%
viability, T/C [7]: 103%
viability, T/C [8]: 86.7%
viability, T/C [9]: 91%
viability, T/C [10]: 94.2%
viability, T/C [11]: 54.8%
viability, T/C [12]: 23.5%
viability, T/C [13]: 90.5%
viability, T/C [14]: 95%
viability, T/C [15]: 83.7%
viability, T/C [16]: 94%
viability, T/C [17]: 65.2%
viability, T/C [18]: 21.9%
viability, T/C [19]: 90.3%
viability, T/C [20]: 90.8%
viability, T/C [21]: 101%
viability, T/C [22]: 109%
viability, T/C [23]: 67.2%
viability, T/C [24]: 25.4%
viability, T/C [25]: 89.2%
viability, T/C [26]: 101%
viability, T/C [27]: 99.8%
viability, T/C [28]: 79.9%
viability, T/C [29]: 58.4%
viability, T/C [30]: 26.2%
viability, T/C [31]: 105%
viability, T/C [32]: 104%
viability, T/C [33]: 100%
viability, T/C [34]: 91.7%
viability, T/C [35]: 52.2%
viability, T/C [36]: 27.8%

CCN1CCN(Cc2ccc(Nc3ncc(F)c(-c4cc(F)c5nc(C)n(C(C)C)c5c4)n3)nc2)CC1 + CC(Nc1ncnc2nc[nH]c12)c1cc2cccc(Cl)c2c(=O)n1-c1ccccc1
IC50 (second compound 0.0316 µM): > 1 µM
IC50 (second compound 0.1 µM): > 1 µM
IC50 (second compound 0.316 µM): > 1 µM
IC50 (second compound 1 µM): > 1 µM
IC50 (second compound 3.16 µM): > 1 µM
IC50 (second compound 10 µM): > 1 µM
viability, T/C (second compound 0.0316 µM, first compound 0.00316 µM): 92%
viability, T/C (second compound 0.0316 µM, first compound 0.01 µM): 90.9%
viability, T/C [1]: 100%
viability, T/C [2]: 98.6%
viability, T/C [3]: 150%
viability, T/C [4]: 109%
viability, T/C (second compound 0.1 µM, first compound 0.00316 µM): 91.5%
viability, T/C (second compound 0.1 µM, first compound 0.01 µM): 88.2%
viability, T/C [7]: 104%
viability, T/C [8]: 106%
viability, T/C [9]: 137%
viability, T/C [10]: 149%
viability, T/C (second compound 0.316 µM, first compound 0.00316 µM): 95.2%
viability, T/C (second compound 0.316 µM, first compound 0.01 µM): 93.9%
viability, T/C [13]: 98.2%
viability, T/C [14]: 100%
viability, T/C [15]: 147%
viability, T/C [16]: 106%
viability, T/C (second compound 1 µM, first compound 0.00316 µM): 98.5%
viability, T/C (second compound 1 µM, first compound 0.01 µM): 90.5%
viability, T/C [19]: 105%
viability, T/C [20]: 108%
viability, T/C [21]: 148%
viability, T/C [22]: 79.7%
viability, T/C (second compound 3.16 µM, first compound 0.00316 µM): 106%
viability, T/C (second compound 3.16 µM, first compound 0.01 µM): 93.9%
viability, T/C [25]: 123%
viability, T/C [26]: 124%
viability, T/C [27]: 144%
viability, T/C [28]: 86.8%
viability, T/C (second compound 10 µM, first compound 0.00316 µM): 111%
viability, T/C (second compound 10 µM, first compound 0.01 µM): 107%
viability, T/C [31]: 118%
viability, T/C [32]: 120%
viability, T/C [33]: 114%
viability, T/C [34]: 57.9%

Cn1ncc(Cl)c1-c1cc(C(=O)NC(CN)Cc2cccc(F)c2)sc1Cl (stereo not drawn) + CC(Nc1ncnc2nc[nH]c12)c1cc2cccc(Cl)c2c(=O)n1-c1ccccc1
IC50 (second compound 0.0316 µM): 5.37 µM
IC50 (second compound 0.1 µM): 4.2 µM
IC50 (second compound 0.316 µM): 4.15 µM
IC50 (second compound 1 µM): 4.48 µM
IC50 (second compound 3.16 µM): 3.16 µM
IC50 (second compound 10 µM): 3.29 µM
viability, T/C [1]: 106%
viability, T/C [2]: 87.6%
viability, T/C [3]: 98%
viability, T/C [4]: 93.7%
viability, T/C [5]: 75.7%
viability, T/C [6]: 19.8%
viability, T/C [7]: 107%
viability, T/C [8]: 103%
viability, T/C [9]: 100%
viability, T/C [10]: 92%
viability, T/C [11]: 60.7%
viability, T/C [12]: 16.4%
viability, T/C [13]: 98.4%
viability, T/C [14]: 100%
viability, T/C [15]: 104%
viability, T/C [16]: 95%
viability, T/C [17]: 59.5%
viability, T/C [18]: 19.6%
viability, T/C [19]: 95.9%
viability, T/C [20]: 88.5%
viability, T/C [21]: 105%
viability, T/C [22]: 94.5%
viability, T/C [23]: 64%
viability, T/C [24]: 17.6%
viability, T/C [25]: 104%
viability, T/C [26]: 113%
viability, T/C [27]: 96.1%
viability, T/C [28]: 82.1%
viability, T/C [29]: 50%
viability, T/C [30]: 19.6%
viability, T/C [31]: 98.3%
viability, T/C [32]: 112%
viability, T/C [33]: 106%
viability, T/C [34]: 75.1%
viability, T/C [35]: 54.7%
viability, T/C [36]: 20.6%

Cn1nccc1Nc1nccc(-c2ccn(C(CO)c3ccc(Cl)c(F)c3)c(=O)c2)n1 (stereo not drawn) + CC(Nc1ncnc2nc[nH]c12)c1cc2cccc(Cl)c2c(=O)n1-c1ccccc1
IC50 (second compound 0.0316 µM): 5.16 µM
IC50 (second compound 0.1 µM): 5.57 µM
IC50 (second compound 0.316 µM): 2.94 µM
IC50 (second compound 1 µM): 5.74 µM
IC50 (second compound 3.16 µM): 2.62 µM
IC50 (second compound 10 µM): 1.53 µM
viability, T/C [1]: 95.6%
viability, T/C [2]: 89.2%
viability, T/C [3]: 89.7%
viability, T/C [4]: 68.1%
viability, T/C [5]: 57%
viability, T/C [6]: 42.7%
viability, T/C [7]: 106%
viability, T/C [8]: 102%
viability, T/C [9]: 84.3%
viability, T/C [10]: 77.3%
viability, T/C [11]: 65.4%
viability, T/C [12]: 36.5%
viability, T/C [13]: 101%
viability, T/C [14]: 102%
viability, T/C [15]: 80.6%
viability, T/C [16]: 67.1%
viability, T/C [17]: 50.8%
viability, T/C [18]: 29.9%
viability, T/C [19]: 109%
viability, T/C [20]: 98.6%
viability, T/C [21]: 71.8%
viability, T/C [22]: 72.9%
viability, T/C [23]: 61.2%
viability, T/C [24]: 40.6%
viability, T/C [25]: 99.1%
viability, T/C [26]: 105%
viability, T/C [27]: 93.4%
viability, T/C [28]: 71.3%
viability, T/C [29]: 47.1%
viability, T/C [30]: 28%
viability, T/C [31]: 111%
viability, T/C [32]: 99%
viability, T/C [33]: 72.6%
viability, T/C [34]: 57.8%
viability, T/C [35]: 39.7%
viability, T/C [36]: 12.7%
